Assay results taken from ChEMBL document CHEMBL3232814, “Synthesis and anticancer structure activity relationship investigation of cationic anthraquinone analogs” (2014).

Experiments:
Format in all cases: functional
[1] = tested on: SK-MEL-28; assay: Growth inhibition of human SK-MEL-28 cells; conditions: for CC50: read-out: LC50 (the source's name)
[2] = Growth inhibition of human LOXIMVI cells; conditions: LOX IMVI; for CC50: read-out: LC50 (the source's name)
[3] = tested on: KM12; assay: Growth inhibition of human KM12 cells; conditions: for CC50: read-out: LC50 (the source's name)
[4] = Growth inhibition of human UACC62 cells; conditions: for GI50: UACC-62; for CC50: UACC-62, read-out: LC50 (the source's name)
[5] = tested on: SW-620; assay: Growth inhibition of human SW620 cells; conditions: for CC50: read-out: LC50 (the source's name)
[6] = tested on: SNB-19; assay: Growth inhibition of human SNB19 cells
[7] = tested on: M14; assay: Growth inhibition of human M14 cells; conditions: for CC50: read-out: LC50 (the source's name)
[8] = tested on: HT-29; assay: Growth inhibition of human HT-29 cells
[9] = tested on: COLO 205; assay: Growth inhibition of human COLO205 cells; conditions: for CC50: read-out: LC50 (the source's name)
[10] = tested on: MDA-MB-435; assay: Growth inhibition of human MDA-MB-435 cells; conditions: for CC50: read-out: LC50 (the source's name)
[11] = tested on: Malme-3M; assay: Growth inhibition of human MALME-3M cells; conditions: for CC50: read-out: LC50 (the source's name)
[12] = Growth inhibition of human SF295 cells; conditions: SF-295
[13] = Growth inhibition of human UACC257 cells; conditions: for GI50: UACC-257; for CC50: UACC-257, read-out: LC50 (the source's name)
[14] = tested on: NCI-H226; assay: Growth inhibition of human NCI-H226 cells; conditions: for CC50: read-out: LC50 (the source's name)
[15] = tested on: SK-MEL-5; assay: Growth inhibition of human SK-MEL-5 cells
[16] = tested on: NCI-H23; assay: Growth inhibition of human NCI-H23 cells; conditions: for CC50: read-out: LC50 (the source's name)
[17] = tested on: NCI-H322M; assay: Growth inhibition of human NCI-H322M cells; conditions: for CC50: read-out: LC50 (the source's name)
[18] = Growth inhibition of human HCC2998 cells; conditions: for GI50: HCC 2998; for CC50: HCC 2998, read-out: LC50 (the source's name)
[19] = Growth inhibition of human SF539 cells; conditions: for GI50: SF-539; for CC50: SF-539, read-out: LC50 (the source's name)
[20] = tested on: SK-MEL-2; assay: Growth inhibition of human SK-MEL-2 cells; conditions: for CC50: read-out: LC50 (the source's name)
[21] = tested on: NCI-H460; assay: Growth inhibition of human NCI-H460 cells; conditions: for CC50: read-out: LC50 (the source's name)
[22] = tested on: HOP-62; assay: Growth inhibition of human HOP62 cells; conditions: for CC50: read-out: LC50 (the source's name)
[23] = tested on: U-251; assay: Growth inhibition of human U251 cells
[24] = Growth inhibition of human HOP92 cells; conditions: for GI50: HOP-92; for CC50: HOP-92, read-out: LC50 (the source's name)
[25] = tested on: NCI-H522; assay: Growth inhibition of human NCI-H522 cells; conditions: for CC50: read-out: LC50 (the source's name)
[26] = Growth inhibition of human NCI60 cells assessed as cell growth; design: concentration or dose not given beside the values
[27] = Growth inhibition of human HCT15 cells; conditions: for GI50: HCT-15; for CC50: HCT-15, read-out: LC50 (the source's name)
[28] = tested on: HCT-116; assay: Growth inhibition of human HCT116 cells; conditions: for CC50: read-out: LC50 (the source's name)
[29] = tested on: SF-268; assay: Growth inhibition of human SF268 cells; conditions: for CC50: read-out: LC50 (the source's name)
[30] = tested on: SNB-75; assay: Growth inhibition of human SNB75 cells; conditions: for CC50: read-out: LC50 (the source's name)
[31] = tested on: A549; assay: Growth inhibition of human A549 cells; conditions: for CC50: read-out: LC50 (the source's name)
[32] = tested on: Staphylococcus aureus; assay: Antimicrobial activity against Staphylococcus aureus ATCC 25923 after 12 to 18 hrs by 2-fold serial dilution method
[33] = Growth inhibition of human EKVX cells

COc1ccc(-n2n[n+](C)c3c2C(=O)c2ccccc2C3=O)cc1OC.O=S(=O)([O-])C(F)(F)F
GI50 [1]: 1.34 µM | CC50 [1]: 6.47 µM | GI50 [2]: 1.14 µM | GI50 [3]: 1.38 µM | CC50 [3]: 7.23 µM | GI50 [4]: 1.22 µM | CC50 [4]: 5.09 µM | GI50 [5]: 1.66 µM | CC50 [5]: 8.87 µM | GI50 [6]: 1.14 µM | LC50 [6]: 4.87 µM | GI50 [7]: 0.33 µM | CC50 [7]: 3.47 µM | GI50 [8]: 0.55 µM | LC50 [8]: 22.2 µM | GI50 [9]: 0.31 µM | CC50 [9]: 5.71 µM | GI50 [10]: 0.19 µM | CC50 [10]: 0.64 µM | GI50 [11]: 0.21 µM | CC50 [11]: 1.88 µM | GI50 [12]: 0.2 µM | LC50 (concentration killing 50% of cells) [12]: 0.95 µM | GI50 [13]: 1.49 µM | CC50 [13]: 5.34 µM | GI50 [14]: 1.3 µM | CC50 [14]: 6.85 µM | GI50 [15]: 0.16 µM | LC50 (lethal concentration 50) [15]: 0.57 µM | GI50 [16]: 1.06 µM | CC50 [16]: > 100 µM | GI50 [17]: 0.3 µM | CC50 [17]: 3.34 µM | GI50 [18]: 1.65 µM | CC50 [18]: 5.79 µM | GI50 [19]: 0.5 µM | CC50 [19]: 4.08 µM | GI50 [20]: 1.4 µM | CC50 [20]: 7.37 µM | GI50 [21]: 0.36 µM | CC50 [21]: 8.21 µM | GI50 [22]: 1.23 µM | CC50 [22]: 5.64 µM | GI50 [23]: 1.34 µM | LC50 [23]: 5.11 µM | GI50 [24]: 2.27 µM | CC50 [24]: 58.8 µM | GI50 [25]: 2 µM | CC50 [25]: 6.86 µM | Activity [26]: -31.51% | GI50 [27]: 1.11 µM | CC50 [27]: 6.06 µM | GI50 [28]: 1.16 µM | CC50 [28]: 9.53 µM | GI50 [29]: 1.23 µM | CC50 [29]: > 100 µM | GI50 [30]: 0.82 µM | CC50 [30]: 4.56 µM | GI50 [31]: 0.4 µM | CC50 [31]: 8.97 µM | MIC [32]: 4 µg/mL

C[n+]1nn(-c2ccc(F)cc2)c2c1C(=O)c1ccccc1C2=O.O=S(=O)([O-])C(F)(F)F
GI50 [1]: 4.27 µM | CC50 [1]: 45.9 µM | GI50 [2]: 1.35 µM | CC50 [2]: 8.17 µM | GI50 [3]: 2.4 µM | CC50 [3]: 33.5 µM | GI50 [4]: 1.55 µM | CC50 [4]: 7.67 µM | GI50 [5]: 6.12 µM | CC50 [5]: 47.5 µM | GI50 [6]: 1.37 µM | LC50 [6]: 5.88 µM | GI50 [7]: 0.34 µM | CC50 [7]: 3.89 µM | GI50 [8]: 2.51 µM | LC50 [8]: 48 µM | GI50 [9]: 0.35 µM | CC50 [9]: 3.54 µM | GI50 [10]: 0.26 µM | CC50 [10]: 2.21 µM | GI50 [11]: 0.35 µM | CC50 [11]: 4.75 µM | GI50 [33]: 3.28 µM | CC50 ([33]; read-out: LC50 (the source's name)): 62 µM | GI50 [12]: 0.58 µM | LC50 (concentration killing 50% of cells) [12]: 4.94 µM | GI50 [13]: 0.6 µM | CC50 [13]: 6.93 µM | GI50 [14]: 2.26 µM | CC50 [14]: 23 µM | GI50 [15]: 0.17 µM | LC50 (lethal concentration 50) [15]: 0.6 µM | GI50 [16]: 0.82 µM | CC50 [16]: 7.25 µM | GI50 [17]: 0.45 µM | CC50 [17]: 4.22 µM | GI50 [18]: 1.4 µM | CC50 [18]: 8.22 µM | GI50 [19]: 1.83 µM | CC50 [19]: 8.4 µM | GI50 [20]: 2.27 µM | CC50 [20]: 33.7 µM | GI50 [21]: 0.63 µM | CC50 [21]: 9 µM | GI50 [22]: 2.4 µM | CC50 [22]: 32.9 µM | GI50 [23]: 7.86 µM | LC50 [23]: 45.3 µM | GI50 [24]: 10.7 µM | CC50 [24]: > 100 µM | GI50 [25]: 12.1 µM | CC50 [25]: 53.8 µM | Activity [26]: 43.38% | GI50 [27]: 3.72 µM | CC50 [27]: 50.9 µM | GI50 [28]: 1.5 µM | CC50 [28]: 8.19 µM | GI50 [29]: 3.67 µM | CC50 [29]: 46 µM | GI50 [30]: 1.94 µM | CC50 [30]: 7.17 µM | GI50 [31]: 0.67 µM | CC50 [31]: 5.46 µM

COc1cc(OC)cc(-n2n[n+](C)c3c2C(=O)c2ccccc2C3=O)c1.O=S(=O)([O-])C(F)(F)F
GI50 [1]: 3.2 µM | CC50 [1]: 43.3 µM | GI50 [2]: 1.71 µM | CC50 [2]: 7.09 µM | GI50 [3]: 3.11 µM | CC50 [3]: 42.9 µM | GI50 [4]: 1.41 µM | CC50 [4]: 5.89 µM | GI50 [5]: 3 µM | CC50 [5]: > 100 µM | GI50 [6]: 1.25 µM | LC50 [6]: 5.1 µM | GI50 [7]: 0.5 µM | CC50 [7]: 4.37 µM | GI50 [8]: 1.1 µM | LC50 [8]: > 100 µM | GI50 [9]: 0.4 µM | CC50 [9]: 5.35 µM | GI50 [10]: 0.31 µM | GI50 [11]: 0.41 µM | CC50 [11]: 3.72 µM | GI50 [12]: 0.18 µM | LC50 (concentration killing 50% of cells) [12]: 0.61 µM | GI50 [13]: 1.2 µM | CC50 [13]: 5.3 µM | GI50 [14]: 1.74 µM | CC50 [14]: 7.76 µM | GI50 [15]: 0.18 µM | LC50 (lethal concentration 50) [15]: 0.66 µM | GI50 [16]: 1.26 µM | CC50 [16]: > 100 µM | GI50 [17]: 0.36 µM | CC50 [17]: 3.68 µM | GI50 [18]: 1.5 µM | CC50 [18]: 8.99 µM | GI50 [19]: 1.64 µM | CC50 [19]: 5.6 µM | GI50 [20]: 2.08 µM | CC50 [20]: 12.4 µM | GI50 [21]: 0.56 µM | CC50 [21]: 8.01 µM | GI50 [22]: 1.51 µM | CC50 [22]: 6.08 µM | GI50 [23]: 1.53 µM | LC50 [23]: 5.54 µM | GI50 [24]: 7.07 µM | CC50 [24]: > 100 µM | GI50 [25]: 2.54 µM | CC50 [25]: 29.2 µM | Activity [26]: 23.23% | GI50 [27]: 1.61 µM | GI50 [28]: 2.66 µM | CC50 [28]: 48.6 µM | GI50 [29]: 3.68 µM | CC50 [29]: > 100 µM | GI50 [30]: 1.63 µM | CC50 [30]: 5.47 µM | GI50 [31]: 0.78 µM | CC50 [31]: 8.81 µM | MIC [32]: 16 µg/mL
